Reference: patent US7074807B2, “Compositions and methods for inducing cell death” (Georgetown University, priority 1998, dated 2006)

Experiments:
[1] = test system: ERK1; assay: ERK1 activity (MBP phosphorylation of ERK1 immunoprecipitates); format: cell-based, human; conditions: 10 mM, 2 h, MDA-MB 231 cells
Description: FIGS. 4A, 4B. Tempol stimulates ERK1 activity. […] WCL (1 mg) were immunoprecipitated with agarose-conjugated anti-ERK1 antibody, and in vitro MBP phosphorylation assay was performed as described in experimental procedures. The incorporation of γ^32P into MBP was determined in a filter binding assay 4A. In other independent experiments, the reaction products were electrophoresed on 15% SDS-PAGE and MBP (at ˜18 kDa) was visualized by autoradiography 4B. Cont/Control, cells grown overnight in serum-free medium, and treated with 1% ethanol for 2 h.
ERK and SAPK/JNK Activities—Whole cell lysates prepared as described above were immunoprecipitated (1 mg) with an agarose conjugated anti-ERK1 antibody or an agarose conjugated anti-JNK1 antibody for 2 h at 4° C. with constant agitation. The immune-complexes were washed 3 times in lysis buffer and once in KBB as mentioned earlier. ERK or JNK activity assay was carried out according to manufacturer's procedures (UBI). […] The radioactive filters were washed and counted as described above. […] The radiolabeled GST-cJun fusion protein was detected by autoradiography.

[2] = test system: MDA-MB 231 cells; assay: Apoptosis assay (annexin V-FITC/propidium iodide flow cytometry); conditions: 10 mM, MDA-MB 231; for apoptosis/necrosis, time course analysis: up to 3 h
Description: (§1) FIGS. (7A1–7A3), (7B1–7B2), (7C1–7C3), (7D1–7D2), (7E1–7E3), (7F1–7F2). […] Cells were grown in serum-free medium overnight in T-25 flasks and treated with tempol (10 mM) or tempo (10 mM) for various times, trypsinized, and then resuspended in 200 ul 1× binding buffer as described in experimental procedures. The cell suspension was double-stained with annexin V-FITC and propidium iodide and analyzed by flow cytometry. Background signal was determined by comparison with double-stained, single-stained, or unstained control cells. (7A1–7A3), (7C1–7C3), and (7E1–7E3) are cytograms showing a relative distribution of viable (V), apoptotic (A), and necrotic (N) cells at 2 h following tempol or tempo treatment of MDA-MB 231 cells (A), PCI-04A cells (C), and PC-3 cells (E). (7B1–7B3), (7D1–7D2), and (7F1–7F2) are time course analyses of MDA-MB 231 cells (B), PCT-04A cells (D), and PC-3 cells (F). 100,000 cells were analyzed at each time point in triplicate (B) or quadruplicate (D and F). Solid bars, 1% ethanol, striped bars, 10 mM tempol, empty bars, 10 mM tempo. […] Data shown are representative from three to four independent experiments. (7B1–7B2), Time course analysis of MDA-MB 231 cells undergoing apoptosis (annexin V-FITC staining) (7B1), or necrosis (propidium iodide staining) (7B2). Values shown are mean±s.d. of triplicate determinations per time point in each treatment category, and representative of three to four independent experiments. […] (7D1–7D2), Time course analysis of PCI-04A cells undergoing apoptosis (annexin V-FITC staining) (7D1), or necrosis (propidium iodide staining) (7D2). Values shown are mean±s.d. of quadruplicate determinations per time point in each treatment category. […] (7F1–7F2), Time course analysis of PC-3 cells undergoing apoptosis (annexin V-FITC staining) (7F1), or necrosis (propidium iodide staining) (7F2). Values shown are mean±s.d. of quadruplicate determinations per time point in each treatment category. Control/C, cells treated with 1% ethanol for 2 h.
Apoptosis Assay—ApoAlert Annexin V apoptosis detection system (Clontech Lab Inc., Palo Alto, Calif.) was used to measure the relative distribution of apoptotic and necrotic cells. Briefly, cells were seeded at a density of 1×10^6 cells per 25 cm^2 tissue culture flask in medium containing 10% FBS overnight, followed by washing twice in serum-free medium. Cells were maintained overnight in serum-free medium and exposed to tempol (10 mM) or tempo (10 mM) for various times. This was followed by rinsing twice with serum-free medium prior to trypsinization, dilution in two volumes of serum-free medium, and centrifugation at 10,000× g. The cell pellet was washed once with PBS and resuspended in 200 ul of 1× binding buffer. The cell suspension was double-labeled with fluorescein isothiocyanate (FITC)-labeled annexin V (10 ul) and propidium iodide (PI) (10 ul) according to the manufacturer's instructions. Unlabeled cells or untreated cells labeled with either FITC-annexin V or PI, or double-labeled served as internal controls for the background signal. The intensity of the dye uptake by cells was detected using FACStar plus Flow Cytometer (Becton Dickerson, Lincoln Park, N.J.), and data were analyzed using Reproman True Facts software (Seattle, Wash.). Viable cells were FITC−/PI−, apoptotic cells were FITC+/PI−, and necrotic cells were FITC+/PI+.

[3] = test system: PC-3 cells; assay: Apoptosis assay (annexin V-FITC/propidium iodide flow cytometry), serum-free; conditions: 10 mM, 2 h, PC-3
Description: as §1
Apoptosis Assay—ApoAlert Annexin V apoptosis detection system (Clontech Lab Inc., Palo Alto, Calif.) was used to measure the relative distribution of apoptotic and necrotic cells. Briefly, cells were seeded at a density of 1×10^6 cells per 25 cm^2 tissue culture flask in medium containing 10% FBS overnight, followed by washing twice in serum-free medium. Cells were maintained overnight in serum-free medium and exposed to tempol (10 mM) or tempo (10 mM) for various times. […] The intensity of the dye uptake by cells was detected using FACStar plus Flow Cytometer (Becton Dickerson, Lincoln Park, N.J.), and data were analyzed using Reproman True Facts software (Seattle, Wash.). […]

CC1(C)CCCC(C)(C)N1[O] [tempo, 2,2,6,6-tetramethylpiperidine-N-oxyl]
increase in the enzymatic activity of ERK1 [1]: no change in ERK1 activity
apoptotic cells (A) ([2]; 2 h): 52.42%
viable cells (V) ([2]; 2 h): 35.83%
apoptosis/necrosis, time course analysis [2]: steady increase in the number of apoptotic cells for upto 2 h, followed by a considerable increase in the number of necrotic cells by 3 h
apoptotic cells (A) [3]: 2.57%
viable cells (V) [3]: 10.76%

CC1(C)CC(O)CC(C)(C)N1[O] [tempol, 4-hydroxy-tempo, reference compound]
increase in the enzymatic activity of ERK1 [1]: Approximately 3 fold
apoptotic cells (A) ([2]; 2 h): 6.32%
apoptosis/necrosis, time course analysis [2]: did not induce apoptosis or necrosis
apoptotic cells (A) [3]: 1.20%
